Laboratory results reported in PubChem BioAssay (NCI).
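These data come from cells grown in 96-well plates and exposed to compound for 48 hours at five concentrations. GI50 is the concentration that inhibits growth by half. TGI marks complete inhibition of growth.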

Assays:
Experiment in all cases: DTP human tumour cell line panel, 48 h
786-0 renal = test system: 786-0 renal
A498 renal = test system: A498 renal
A549 NSCLC = test system: A549 NSCLC
ACHN renal = test system: ACHN renal
BT-549 breast = test system: BT-549 breast
CAKI-1 renal = test system: CAKI-1 renal
CCRF-CEM leukemia = test system: CCRF-CEM leukemia
COLO 205 colon = test system: COLO 205 colon
DU-145 prostate = test system: DU-145 prostate
EKVX NSCLC = test system: EKVX NSCLC
HCC-2998 colon = test system: HCC-2998 colon
HCT-116 colon = test system: HCT-116 colon
HCT-15 colon = test system: HCT-15 colon
HL-60(TB) leukemia = test system: HL-60(TB) leukemia
HOP-62 NSCLC = test system: HOP-62 NSCLC
HOP-92 NSCLC = test system: HOP-92 NSCLC
HS 578T breast = test system: HS 578T breast
HT29 colon = test system: HT29 colon
IGROV1 ovarian = test system: IGROV1 ovarian
K-562 leukemia = test system: K-562 leukemia
KM12 colon = test system: KM12 colon
LOX IMVI melanoma = test system: LOX IMVI melanoma
M14 melanoma = test system: M14 melanoma
MALME-3M melanoma = test system: MALME-3M melanoma
MCF7 breast = test system: MCF7 breast
MDA-MB-231 breast = test system: MDA-MB-231 breast
MDA-MB-435 = test system: MDA-MB-435
MDA-MB-468 breast = test system: MDA-MB-468 breast
MOLT-4 leukemia = test system: MOLT-4 leukemia
NCI-H226 lung = test system: NCI-H226 lung
NCI-H23 lung = test system: NCI-H23 lung
NCI-H460 lung = test system: NCI-H460 lung
NCI-H522 lung = test system: NCI-H522 lung
NCI/ADR-RES ovarian = test system: NCI/ADR-RES ovarian
OVCAR-3 ovarian = test system: OVCAR-3 ovarian
OVCAR-4 ovarian = test system: OVCAR-4 ovarian
OVCAR-5 ovarian = test system: OVCAR-5 ovarian
OVCAR-8 ovarian = test system: OVCAR-8 ovarian
PC-3 prostate = test system: PC-3 prostate
RPMI-8226 leukemia = test system: RPMI-8226 leukemia
RXF 393 renal = test system: RXF 393 renal
SF-268 CNS = test system: SF-268 CNS
SF-295 CNS = test system: SF-295 CNS
SF-539 CNS = test system: SF-539 CNS
SK-MEL-2 melanoma = test system: SK-MEL-2 melanoma
SK-MEL-28 melanoma = test system: SK-MEL-28 melanoma
SK-MEL-5 melanoma = test system: SK-MEL-5 melanoma
SK-OV-3 ovarian = test system: SK-OV-3 ovarian
SN12C renal = test system: SN12C renal
SNB-19 CNS = test system: SNB-19 CNS
SNB-75 CNS = test system: SNB-75 CNS
SR leukemia = test system: SR leukemia
SW-620 colon = test system: SW-620 colon
TK-10 renal = test system: TK-10 renal
U251 CNS = test system: U251 CNS
UACC-257 melanoma = test system: UACC-257 melanoma
UACC-62 melanoma = test system: UACC-62 melanoma
UO-31 renal = test system: UO-31 renal

`Cn1cc(-c2nc(N)nnc2-c2c[nH]c3ccc(Br)cc23)c2cc(Br)cnc21` was tested. Which GI50 (786-0 renal) did it give?
Its GI50 is 422 nM.

And the TGI (786-0 renal)?
The TGI was 16100 nM.

And the GI50 (A498 renal)?
The GI50 was 662 nM.

And the TGI (A498 renal)?
The TGI was 5320 nM.

What about the GI50 (A549 NSCLC) of the same compound?
The GI50 was 455 nM.

What about the TGI (A549 NSCLC) of the same compound?
The TGI was 29100 nM.

What about the GI50 (ACHN renal) of the same compound?
Its GI50 is 748 nM.

What about the TGI (ACHN renal) of the same compound?
Its TGI is 13200 nM.

What about the GI50 (BT-549 breast) of the same compound?
Its GI50 is 227 nM.

And the TGI (BT-549 breast)?
The TGI was 7720 nM.

What about the GI50 (CAKI-1 renal) of the same compound?
Its GI50 is 184 nM.

What about the TGI (CAKI-1 renal) of the same compound?
Its TGI is 18200 nM.

What about the GI50 (CCRF-CEM leukemia) of the same compound?
The GI50 was 279 nM.

What about the TGI (CCRF-CEM leukemia) of the same compound?
The TGI was > 100000 nM.

And the GI50 (COLO 205 colon)?
Its GI50 is 248 nM.

And the TGI (COLO 205 colon)?
Its TGI is 762 nM.

What about the GI50 (DU-145 prostate) of the same compound?
Its GI50 is 352 nM.

And the TGI (DU-145 prostate)?
Its TGI is 12800 nM.

What about the GI50 (EKVX NSCLC) of the same compound?
The GI50 was 881 nM.

And the TGI (EKVX NSCLC)?
The TGI was 23700 nM.

And the GI50 (HCC-2998 colon)?
Its GI50 is 379 nM.

And the TGI (HCC-2998 colon)?
The TGI was 11400 nM.

What about the GI50 (HCT-116 colon) of the same compound?
The GI50 was 141 nM.

And the TGI (HCT-116 colon)?
The TGI was 3360 nM.

What about the GI50 (HCT-15 colon) of the same compound?
The GI50 was 177 nM.

What about the TGI (HCT-15 colon) of the same compound?
The TGI was 11000 nM.

What about the GI50 (HL-60(TB) leukemia) of the same compound?
The GI50 was 144 nM.

What about the TGI (HL-60(TB) leukemia) of the same compound?
The TGI was 824 nM.

And the GI50 (HOP-62 NSCLC)?
Its GI50 is 420 nM.

What about the TGI (HOP-62 NSCLC) of the same compound?
Its TGI is 19500 nM.

And the GI50 (HOP-92 NSCLC)?
Its GI50 is 1270 nM.

What about the TGI (HOP-92 NSCLC) of the same compound?
Its TGI is 11400 nM.

And the GI50 (HS 578T breast)?
Its GI50 is 285 nM.

What about the TGI (HS 578T breast) of the same compound?
The TGI was 38000 nM.

And the GI50 (HT29 colon)?
Its GI50 is 269 nM.

And the TGI (HT29 colon)?
Its TGI is 1040 nM.

What about the GI50 (IGROV1 ovarian) of the same compound?
The GI50 was 398 nM.

What about the TGI (IGROV1 ovarian) of the same compound?
The TGI was 18800 nM.

And the GI50 (K-562 leukemia)?
Its GI50 is 49 nM.

What about the TGI (K-562 leukemia) of the same compound?
Its TGI is > 35600 nM.

What about the GI50 (KM12 colon) of the same compound?
The GI50 was 146 nM.

And the TGI (KM12 colon)?
Its TGI is 11300 nM.

What about the GI50 (LOX IMVI melanoma) of the same compound?
The GI50 was 299 nM.

And the TGI (LOX IMVI melanoma)?
The TGI was 15800 nM.

And the GI50 (M14 melanoma)?
Its GI50 is 148 nM.

What about the TGI (M14 melanoma) of the same compound?
Its TGI is 13900 nM.

What about the GI50 (MALME-3M melanoma) of the same compound?
The GI50 was 135 nM.

What about the TGI (MALME-3M melanoma) of the same compound?
The TGI was 20300 nM.

And the GI50 (MCF7 breast)?
The GI50 was 58.3 nM.

What about the TGI (MCF7 breast) of the same compound?
Its TGI is 15900 nM.

And the GI50 (MDA-MB-231 breast)?
Its GI50 is 442 nM.

And the TGI (MDA-MB-231 breast)?
Its TGI is 11700 nM.

And the GI50 (MDA-MB-435)?
Its GI50 is 32 nM.

And the TGI (MDA-MB-435)?
The TGI was 120 nM.

And the GI50 (MDA-MB-468 breast)?
The GI50 was 69 nM.

What about the TGI (MDA-MB-468 breast) of the same compound?
Its TGI is 1030 nM.

And the GI50 (MOLT-4 leukemia)?
Its GI50 is 341 nM.

What about the TGI (MOLT-4 leukemia) of the same compound?
Its TGI is 20300 nM.

What about the GI50 (NCI-H226 lung) of the same compound?
The GI50 was 582 nM.

And the TGI (NCI-H226 lung)?
The TGI was 8660 nM.

And the GI50 (NCI-H23 lung)?
The GI50 was 373 nM.

And the TGI (NCI-H23 lung)?
Its TGI is 14900 nM.

And the GI50 (NCI-H460 lung)?
Its GI50 is 349 nM.

What about the TGI (NCI-H460 lung) of the same compound?
The TGI was 11200 nM.

And the GI50 (NCI-H522 lung)?
Its GI50 is 21.2 nM.

What about the TGI (NCI-H522 lung) of the same compound?
The TGI was 61.9 nM.

What about the GI50 (NCI/ADR-RES ovarian) of the same compound?
The GI50 was 432 nM.

And the TGI (NCI/ADR-RES ovarian)?
The TGI was 7080 nM.

What about the GI50 (OVCAR-3 ovarian) of the same compound?
Its GI50 is 64.9 nM.

And the TGI (OVCAR-3 ovarian)?
The TGI was 2510 nM.

What about the GI50 (OVCAR-4 ovarian) of the same compound?
The GI50 was 978 nM.

And the TGI (OVCAR-4 ovarian)?
Its TGI is 20200 nM.

And the GI50 (OVCAR-5 ovarian)?
Its GI50 is 422 nM.

And the TGI (OVCAR-5 ovarian)?
The TGI was 15600 nM.

What about the GI50 (OVCAR-8 ovarian) of the same compound?
Its GI50 is 450 nM.

And the TGI (OVCAR-8 ovarian)?
The TGI was 9020 nM.

What about the GI50 (PC-3 prostate) of the same compound?
Its GI50 is 130 nM.

And the TGI (PC-3 prostate)?
The TGI was 30100 nM.

What about the GI50 (RPMI-8226 leukemia) of the same compound?
Its GI50 is 422 nM.

What about the TGI (RPMI-8226 leukemia) of the same compound?
The TGI was > 100000 nM.

What about the GI50 (RXF 393 renal) of the same compound?
The GI50 was 167 nM.

What about the TGI (RXF 393 renal) of the same compound?
The TGI was 3840 nM.

What about the GI50 (SF-268 CNS) of the same compound?
The GI50 was 1620 nM.

What about the TGI (SF-268 CNS) of the same compound?
Its TGI is 22000 nM.

And the GI50 (SF-295 CNS)?
Its GI50 is 75 nM.

What about the TGI (SF-295 CNS) of the same compound?
Its TGI is 12800 nM.

And the GI50 (SF-539 CNS)?
The GI50 was 154 nM.

What about the TGI (SF-539 CNS) of the same compound?
The TGI was 532 nM.

What about the GI50 (SK-MEL-2 melanoma) of the same compound?
Its GI50 is 194 nM.

And the TGI (SK-MEL-2 melanoma)?
The TGI was 14800 nM.

What about the GI50 (SK-MEL-28 melanoma) of the same compound?
Its GI50 is 324 nM.

What about the TGI (SK-MEL-28 melanoma) of the same compound?
Its TGI is 17800 nM.

What about the GI50 (SK-MEL-5 melanoma) of the same compound?
Its GI50 is 114 nM.

What about the TGI (SK-MEL-5 melanoma) of the same compound?
Its TGI is 3910 nM.

What about the GI50 (SK-OV-3 ovarian) of the same compound?
Its GI50 is 432 nM.

And the TGI (SK-OV-3 ovarian)?
The TGI was 20200 nM.

And the GI50 (SN12C renal)?
Its GI50 is 423 nM.

What about the TGI (SN12C renal) of the same compound?
The TGI was 14500 nM.

And the GI50 (SNB-19 CNS)?
Its GI50 is 454 nM.

What about the TGI (SNB-19 CNS) of the same compound?
The TGI was 16500 nM.

What about the GI50 (SNB-75 CNS) of the same compound?
Its GI50 is 192 nM.

What about the TGI (SNB-75 CNS) of the same compound?
Its TGI is 2910 nM.

And the GI50 (SR leukemia)?
The GI50 was 43 nM.

What about the TGI (SR leukemia) of the same compound?
Its TGI is > 52900 nM.

What about the GI50 (SW-620 colon) of the same compound?
Its GI50 is 217 nM.

What about the TGI (SW-620 colon) of the same compound?
Its TGI is 18400 nM.

And the GI50 (TK-10 renal)?
Its GI50 is 12600 nM.

What about the TGI (TK-10 renal) of the same compound?
Its TGI is 50400 nM.

What about the GI50 (U251 CNS) of the same compound?
Its GI50 is 349 nM.

And the TGI (U251 CNS)?
Its TGI is 13300 nM.

What about the GI50 (UACC-257 melanoma) of the same compound?
The GI50 was 11000 nM.

And the TGI (UACC-257 melanoma)?
Its TGI is 23500 nM.

And the GI50 (UACC-62 melanoma)?
The GI50 was 47.3 nM.

What about the TGI (UACC-62 melanoma) of the same compound?
Its TGI is 16400 nM.

And the GI50 (UO-31 renal)?
The GI50 was 349 nM.

And the TGI (UO-31 renal)?
Its TGI is 16500 nM.
